Laboratory results as given in patent publication US20060084135A1, “Compositions for manipulating the lifespan and stress response of cells and organisms” (priority 2003, published 2006).

What was measured:
S. cerevisiae [1] = test: Yeast replicative lifespan; assay type: cell-based; conditions: 10 μM, wild type
Experimental: Average lifespan was determined for wild type untreated (□), quercetin (◯) and piceatannol (●).

S. cerevisiae [2] = test: Yeast chronological lifespan; assay type: cell-based; conditions: 10 μM or 100 μM
human recombinant SIRT2 = molecular target: T1, human recombinant SIRT2 (Homo sapiens, UniProt Q8IXJ6); test: SIRT2 deacetylation assay (Fluor de Lys-SIRT2); assay type: biochemical; conditions: increasing concentrations; 25 μM Fluor de Lys-SIRT2, 25 μM NAD+
T1 sequence (Q8IXJ6 1-389): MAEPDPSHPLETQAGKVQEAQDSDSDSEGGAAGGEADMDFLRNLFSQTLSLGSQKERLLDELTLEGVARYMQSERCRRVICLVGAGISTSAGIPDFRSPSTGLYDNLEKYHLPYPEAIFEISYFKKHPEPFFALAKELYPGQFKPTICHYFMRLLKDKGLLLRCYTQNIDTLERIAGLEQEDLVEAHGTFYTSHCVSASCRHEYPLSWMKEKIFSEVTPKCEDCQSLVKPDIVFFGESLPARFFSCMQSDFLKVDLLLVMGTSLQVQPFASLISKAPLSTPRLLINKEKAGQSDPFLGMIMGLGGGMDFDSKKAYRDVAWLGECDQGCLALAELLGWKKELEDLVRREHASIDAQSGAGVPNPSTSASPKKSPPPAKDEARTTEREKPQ
From the text: Yeast Sir2 and human SIRT1 are very homologous and differ from human SIRT2 by the addition of an N-terminal domain that is absent in SIRT2. […] Thus, based on the difference in structure of SIRT1 and SIRT2, i.e., the absence of an N-terminal domain, it is believed that the N-terminal domain of SIRT1 and Sir2 is necessary for activation by the compounds described herein. In particular, it is likely that the activator compounds described herein interact with the N-terminal portion of sirtuins. The N-terminal portion of SIRT1 that is necessary for the action of the compounds is from about amino acid 1 to about amino acid 176, and that of Sir2 is from about amino acid 1 to about amino acid 175.

[3] = tested on: lysine 382 of p53 in U2OS osteosarcoma cells; test: p53 Ac-K382 Western blot after UV radiation in U2OS cells; assay type: cell-based, human

Oc1ccc(/C=C/c2cc(O)cc(O)c2)cc1 [Resveratrol, 3,5,4′-Trihydroxy-trans-stilbene]
Effect on maximum lifespan (S. cerevisiae [1]): significantly increased
Increase of average lifespan (S. cerevisiae [1]): 70%
Effect on chronological lifespan (S. cerevisiae [2]): failed to extend
Effect on SIRT2 activity (human recombinant SIRT2): decrease
Level of Ac-K382 of p53 compared to untreated cells ([3]; 0.5 μM resveratrol, 4 hours pre-treatment, UV radiation): marked decrease
Level of Ac-K382 of p53 ([3]; higher concentrations of resveratrol (>50 μM)): reversed
